From patent US10869874B2, “Methods and compositions for topical delivery of prostaglandins to subcutaneous fat” (Topokine Therapeutics, Inc., priority 2013, dated 2020)

Tests used:
[1] = skin permeation ex vivo, Franz-type diffusion cell; type: in vitro ADME, human; conditions: free acid recovered in dermis and receptor fluid
Procedure: Skin permeation studies were conducted with various formulations of latanoprost, ex vivo, on fresh human skin. Fresh human skin was obtained from live donors undergoing abdominoplasty and mounted on a standard (Franz-type) diffusion cell apparatus. All test articles contained 0.8% (weight/weight) of latanoprost. Each test article (8 mg) was uniformly applied to a skin surface of 0.8 cm^2. All formulations were tested on skin from at least two different donors. Treated skin was left open to the atmosphere to simulate clinical conditions. Receptor fluid flowed continuously over 24 hours and was collected in fractions. The amount of active drug metabolite (latanoprost free acid) in these fractions was determined by Liquid Chromatography/Tandem Mass Spectrometry. The following amounts of drug were recovered from receptor fluid over 24 hours:
Skin permeation studies were conducted with various formulations of latanoprost 0.5%, ex vivo, on fresh human skin, as described in the foregoing example. All formulations comprised ethanol (70%) and oleic acid (1.5%, 3% or 4.5%) with the remainder essentially as propylene glycol (28.5%, 27% or 25.5%, respectively). All studies were run in duplicate.

[2] = test system: abdominal fat; assay: randomized placebo-controlled trial for reduction of abdominal fat; type: in vivo, human; conditions: compared to vehicle alone
Source text: The following experiment describes a randomized, placebo-controlled, double-blind trial in human subjects to test whether the safety and efficacy of a PFPRA pharmaceutical composition for reduction of abdominal fat. The composition can be, for example, as described in Example 1, wherein the PFPRA is latanoprost. Alternatively, the PFPRA can be tafluprost. Other alternatives within the scope of the invention can also be used. Eligible subjects (for example, n=60) with excess anterior abdominal fat are entered into a randomized double-blind study. […] Subjects are instructed to apply, once a day, a metered dose, for example, of 2 ml over a 200 cm^2 application area on the anterior abdomen. The application area is standardized, for example, by use of a template that is centered on the umbilicus. Serial clinical assessments, subjective patient assessments, photographs, and magnetic resonance imaging (MRI) scans are performed prior to the first dose and then, for example, at 6 and 12 weeks. Treatment continues, for example, for a total of 12 weeks.

| SMILES | conversion of prodrug in skin samples [1] | satisfaction with cosmetic appearance [2] |
| --- | --- | --- |
| CC(C)OC(=O)CCC/C=C\C[C@@H]1[C@@H](CC[C@@H](O)CCc2ccccc2)[C@H](O)C[C@@H]1O [latanoprost] | converted (hydrolyzed) to the active metabolite, latanoprost free acid | more satisfied with their cosmetic appearance |
| CC(C)OC(=O)CCC/C=C\C[C@@H]1[C@@H](/C=C/C(F)(F)COc2ccccc2)[C@H](O)C[C@@H]1O [tafluprost] | – | more satisfied with their cosmetic appearance |
